Results: paper PMC6196238, “Novobiocin, a Newly Found TRPV1 Inhibitor, Attenuates the Expression of TRPV1 in Rat Intestine and Intestinal Epithelial Cell Line IEC-6” (Frontiers in Pharmacology, 2018)

How the values were obtained:
IEC-6/TRPV1+ cells [1] = experiment: LDH release assay (cell membrane integrity); details: for LDH release: IEC-6/TRPV1+; for LDH release compared with the control: NOVO 2.5, 5, 10 μM, CAP 25 μM, RR 10 μM, SB-705498 0.1 μM, 12 and 24 h
Procedure: (§4) The transfected cells were plated in 12-well plates. […] The cells were centrifuged at 1000 g for 5 min. Next, 50 μL of supernatants were aspirated and the rest of supernatants were discarded. The cells were washed twice with deionized water and then lysed by ultrasonic wave cracker. And then cell lysate and supernatants were analyzed by using LDH Release Assay Kit, according to the manufacturer’s instructions.

in vivo = details: SD, rat, po, 10 mg
Procedure: Blood samples were collected into heparinized tubes before and at 30, 60, 120, 180, 210, 240, 270, 330, 390, and 720 min after administration. Blood samples were immediately centrifuged at 4000 g (4°C) for 10 min to obtain plasma. The plasma samples were stored at -80°C until LC-MS/MS analysis.
The plasma samples and protein sample with 100 μL were extracted with 400 μL of methanol involving IS (verapamil 50 ng⋅mL^-1) by vortex-mix for 1 min, ultrasonic extraction for 1 h, and then centrifugation for 30 min at 15000 g. The supernatant was transferred into a borosilicate glass and 2 μL was subjected to LC-MS/MS analysis.
The LC-MS/MS system consisted of Agilent 6460 Triple Quadrupole LC/MS systems via an ESI interface. The samples were separated on an Agilent ZORBAX SB-C18 column (3.5 μm, 2.1 mm × 150 mm) and the column temperature was maintained at 30°C. The mobile phase consisted of acetonitrile and water contains 0.1% formic acid (70:30, v/v). The flow rate was 0.2 mL⋅min^-1. The ion source was an electrospray ionization interface in the positive mode. […] Other parameters were as follows: spray voltage, 4.0 kV; capillary temperature, 350°C; gas flow, 10 L⋅min^-1.

IEC-6/TRPV1- cells [2] = experiment: LDH release assay (cell membrane integrity)
Procedure: as §4

IEC-6/TRPV1+ cells [3] = experiment: MTT cell viability assay; details: for Cell Survival: IEC-6/TRPV1+
Procedure: (§1) The rat intestinal epithelial cell line IEC-6, purchased from Kunming Institute of Zoology. CAS, was cultured in Dulbecco’s Modified Eagle’s Medium (DMEM) (Gibco, Grand Island, NY, United States) supplemented with 10% fetal bovine serum (FBS; Gibco) at 37°C in a humidified atmosphere of 5% CO2.
(§2) The plasmid pENTER containing the TRPV1 coding sequence NM_080704 was used as template in a PCR with the following primers: 5′-[…]-3′ (forward) and 5′-[…] (reverse). And synthetic small interfering RNA (siRNA) specific for rat TRPV1 (TRPV1-siRNA) was purchased from Vigene Bioscience (Rockville, MD, United States) with the following sequences: 5′-[…]-3′ (forward) and 5′-[…]-3′ (reverse) for TRPV1-siRNA. The transfecting process was conducted by using the lipofectamin® 3000 transfection reagent (Invitrogen^TM, Carlsbad, CA, United States), according to the manufacturer’s protocol.
(§3) The transfected cells were plated in 96-well plates. […] Optical density at 490 nm was used to evaluate cell viability in 96-well plates.

IEC-6/TRPV1- cells [4] = experiment: MTT cell viability assay
Procedure: as §1, §2, §3

[5] = system: rat intestine (jejunum, ileum, colon); experiment: Ussing chamber intestinal permeability of CAP; assay type: in vitro ADME; details: CAP + 10 μM inhibitor; for fold-inhibition factor of CAP Papp: vs CAP only
Procedure: NOVO was also prepared in HEPES buffer to yield final concentration at 5, 10, 25, 50, 100, and 200 μM. […] Different portions of the rat intestine were excised and flushed with HEPES buffer, including jejunum (after the first 5 cm of the top of small intestine), ileum (the distal part of small intestine) and colon (proximal to cecal-colonic junction), and incubated in the ice-cold HEPES buffer. Next, 3–4 cm of the intestine was clipped, and the serosa was removed rapidly on an ice-cold glass. The intestinal segments were fixed in the Ussing chamber. Finally, 7 mL of HEPES buffer was added to the receiving side while an equal volume of drug solution to the dosing side. […] All the samples were kept at -20°C till HPLC analysis.
In brief, samples were injected into a C18 column (3.5 μm, 2.1 mm × 100 mm). An aliquot of 20 μL of sample solutions were injected.

[6] = system: rat intestine (jejunum, ileum, colon); experiment: Ussing chamber intestinal permeability of NOVO; assay type: in vitro ADME; details: NOVO in combination with 10 μM RR; Figure 1
Procedure: The intestinal permeability of CAP in vitro was performed using Ussing chamber. […] NOVO was also prepared in HEPES buffer to yield final concentration at 5, 10, 25, 50, 100, and 200 μM. Animal intestinal segments for the permeability study were prepared in accordance with the experimental method as described previously ([Yodoya et al., 1994]; [Wallon et al., 2005]; [Duan et al., 2013]). Briefly, male SD rats, weighting 240–260 g, were fasted for 18 h before each experiment and anesthetized by injecting 10 % chloral hydrate anesthesia (i.p.). Different portions of the rat intestine were excised and flushed with HEPES buffer, including jejunum (after the first 5 cm of the top of small intestine), ileum (the distal part of small intestine) and colon (proximal to cecal-colonic junction), and incubated in the ice-cold HEPES buffer. Next, 3–4 cm of the intestine was clipped, and the serosa was removed rapidly on an ice-cold glass. The intestinal segments were fixed in the Ussing chamber. Finally, 7 mL of HEPES buffer was added to the receiving side while an equal volume of drug solution to the dosing side. All the chambers were maintained at 37°C by using a warm water-circulating pump and a mixture of 95% O2 and 5% CO2 aerated to ensure the activity of the membrane. […]

IEC-6/TRPV1- cells [7] = experiment: CAP accumulation assay; assay type: cell-based, rat; details: 2.5-10 μM NOVO, 10 μM RR, 0.1 μM SB-705498, Figure 3D
Procedure: The transfected cells were grown to 80% confluence in 12-well plates. The experiment was divided into three parts: […] SB-705498, RR or NOVO was then added to the medium for another 15, 30, and 60 min. […] After incubation, the medium was removed, and cell layers were washed three times with ice-cold PBS and then extracted with Membrane Protein Extraction Kit (Thermo Fisher Scientific Inc, Rockford, IL, United States), according to the manufacturer’s protocol. The cytosolic protein extracts were stored at -80°C until LC-MS/MS analysis. The plasma samples and protein sample with 100 μL were extracted with 400 μL of methanol involving IS (verapamil 50 ng⋅mL^-1) by vortex-mix for 1 min, ultrasonic extraction for 1 h, and then centrifugation for 30 min at 15000 g. The supernatant was transferred into a borosilicate glass and 2 μL was subjected to LC-MS/MS analysis. The LC-MS/MS system consisted of Agilent 6460 Triple Quadrupole LC/MS systems via an ESI interface. The samples were separated on an Agilent ZORBAX SB-C18 column (3.5 μm, 2.1 mm × 150 mm) and the column temperature was maintained at 30°C. The mobile phase consisted of acetonitrile and water contains 0.1% formic acid (70:30, v/v). The flow rate was 0.2 mL⋅min^-1. The ion source was an electrospray ionization interface in the positive mode. […] Other parameters were as follows: spray voltage, 4.0 kV; capillary temperature, 350°C; gas flow, 10 L⋅min^-1.

SMILES: COc1cc(CNC(=O)CCCC/C=C/C(C)C)ccc1O [CAP, capsaicin]
- LDH release (IEC-6/TRPV1+ cells [1]; 25 μM, 12 h): 0.380 ± 0.165 gprot⋅mL ^-1
- LDH release (IEC-6/TRPV1+ cells [1]; 25 μM, 24 h): 0.311 ± 0.051 gprot⋅mL ^-1
- LDH release compared with the control (IEC-6/TRPV1+ cells [1]): not any significant difference
- AUC(0-t) (in vivo): 230 ng·h/mL
- Cmax (in vivo): 52.2 ± 8.92 ng/mL
- Tmax (in vivo; Tmax of CAP): 3.9 h
- Tmax (in vivo; peak time (Tmax) of CAP): ~4 h
- LDH release (IEC-6/TRPV1- cells [2]; 25 μM, 12 h): 0.680 ± 0.205 gprot⋅mL ^-1
- LDH release (IEC-6/TRPV1- cells [2]; 25 μM, 24 h): 0.462 ± 0.101 gprot⋅mL ^-1
- Cell Survival (IEC-6/TRPV1+ cells [3]; 12.5 μM, incubation 12 h): 1.029 ± 0.180
- Cell Survival (IEC-6/TRPV1+ cells [3]; 12.5 μM, incubation 24 h): 0.916 ± 0.163
- Cell Survival (IEC-6/TRPV1+ cells [3]; 25 μM, incubation 12 h): 0.896 ± 0.199
- Cell Survival (IEC-6/TRPV1+ cells [3]; 25 μM, incubation 24 h): 0.822 ± 0.102
- Cell Survival (IEC-6/TRPV1+ cells [3]; 50 μM, incubation 12 h): 0.820 ± 0.201
- Cell Survival (IEC-6/TRPV1+ cells [3]; 50 μM, incubation 24 h): 0.739 ± 0.012
- concentration up to which more than 80% of the cells were viable (IEC-6/TRPV1+ cells [3]; both IEC-6/TRPV1+ and IEC-6/TRPV1-, incubated 24 h): 25 µM
- Cell Survival (IEC-6/TRPV1- cells [4]; 12.5 μM, incubation 12 h): 0.969 ± 0.310
- Cell Survival (IEC-6/TRPV1- cells [4]; 12.5 μM, incubation 24 h): 0.934 ± 0.111
- Cell Survival (IEC-6/TRPV1- cells [4]; 25 μM, incubation 12 h): 0.851 ± 0.216
- Cell Survival (IEC-6/TRPV1- cells [4]; 25 μM, incubation 24 h): 0.878 ± 0.096
- Cell Survival (IEC-6/TRPV1- cells [4]; 50 μM, incubation 12 h): 0.792 ± 0.316
- Cell Survival (IEC-6/TRPV1- cells [4]; 50 μM, incubation 24 h): 0.801 ± 0.171

SMILES: N.N.N.N.N.N.N.N.N.N.N.N.N.N.[Cl-].[Cl-].[Cl-].[Cl-].[Cl-].[Cl-].[O-2].[O-2].[Ru+3].[Ru+3].[Ru+4] [RR, ruthenium red]
- LDH release (IEC-6/TRPV1+ cells [1]; 10 μM, 12 h): 0.406 ± 0.056 gprot⋅mL ^-1
- LDH release (IEC-6/TRPV1+ cells [1]; 10 μM, 24 h): 0.301 ± 0.061 gprot⋅mL ^-1
- LDH release compared with the control (IEC-6/TRPV1+ cells [1]): not any significant difference
- Papp of CAP ([5]; colon): 12.18 ± 2.90 ×10^-6, cm⋅s^-1
- fold-inhibition factor of CAP Papp ([5]; colon): 1.64 fold
- Papp of CAP ([5]; ileum): 5.06 ± 0.57 ×10^-6, cm⋅s^-1
- fold-inhibition factor of CAP Papp ([5]; ileum): 1.46 fold
- Papp of CAP ([5]; jejunum): 2.54 ± 0.40 ×10^-6, cm⋅s^-1
- fold-inhibition factor of CAP Papp ([5]; jejunum): 1.23 fold
- effect on permeability of NOVO across intestinal segments [6]: no change
- LDH release (IEC-6/TRPV1- cells [2]; 10 μM, 12 h): 0.552 ± 0.039 gprot⋅mL ^-1
- LDH release (IEC-6/TRPV1- cells [2]; 10 μM, 24 h): 0.501 ± 0.094 gprot⋅mL ^-1
- accumulation of CAP, co-incubation (IEC-6/TRPV1- cells [7]): did not change
